Results published in patent EP0550016A1, “Novel quinolone carboxylic acid derivatives and processes for preparing same” (KOREA RESEARCH INSTITUTE OF CHEMICAL TECHNOLOGY, priority 1991, dated 1993).
≈ marks a conversion by molar mass, not a printed value. Like-named read-outs stand apart in the source and are kept apart here.

Assays:
[1] = test system: Klebsiella aerogenes 1522 E; assay: In vitro anti-bacterial activity test (MIC, two-fold dilution method) against the standard strains; assay type: cell-based; conditions: Table 1 strain 18: Klebsiella aerogenes 1522 E
Escherichia coli DC 0 [2] = assay: as above; assay type: cell-based; conditions: DC0; Table 1 strain 8: Escherichia coli DC 0
[3] = test system: Pseudomonas aeruginosa 1771 M; assay: as above; assay type: cell-based; conditions: Table 1 strain 15: Pseudomonas aeruginosa 1771 M
[4] = test system: Streptococcus pyogenes 308 A; assay: as above; assay type: cell-based; conditions: Table 1 strain 1: Streptococcus pyogenes 308 A
[5] = test system: Staphylococcus aureus 285; assay: as above; assay type: cell-based; conditions: Table 1 strain 5: Staphylococcus aureus 285; read-out: MIC
[6] = test system: Pseudomonas aeruginosa 9027; assay: as above; assay type: cell-based; conditions: Table 1 strain 12: Pseudomonas aeruginosa 9027
[7] = test system: Staphylococcus aureus SG 511; assay: as above; assay type: cell-based; conditions: SG511; Table 1 strain 4: Staphylococcus aureus SG 511
[8] = test system: Enterobacter cloacae P 99; assay: as above; assay type: cell-based; conditions: P99; Table 1 strain 19: Enterobacter cloacae P 99
Escherichia coli DC 0 [9] = assay: as above; assay type: cell-based; conditions: DC0; Table 1 strain 7: Escherichia coli DC 0
[10] = test system: Pseudomonas aeruginosa 1592 E; assay: as above; assay type: cell-based; conditions: Table 1 strain 13: Pseudomonas aeruginosa 1592 E
[11] = test system: Streptococcus pyogenes 77 A; assay: as above; assay type: cell-based; conditions: Table 1 strain 2: Streptococcus pyogenes 77 A; read-out: MIC
[12] = test system: Staphylococcus aureus 503; assay: as above; assay type: cell-based; conditions: Table 1 strain 6: Staphylococcus aureus 503; read-out: MIC
Escherichia coli OTEM = assay: as above; assay type: cell-based; conditions: Table 1 strain 10: Escherichia coli OTEM
Escherichia coli 1507 E = assay: as above; assay type: cell-based; conditions: Table 1 strain 11: Escherichia coli 1507 E
Salmonella typhimurium = assay: as above; assay type: cell-based; conditions: Salmonella enterica; Table 1 strain 16: Salmonella typhimurium
[13] = test system: Enterobacter cloacae 1321 E; assay: as above; assay type: cell-based; conditions: Table 1 strain 20: Enterobacter cloacae 1321 E
Escherichia coli DC 2 = assay: as above; assay type: cell-based; conditions: DC2; Table 1 strain 9: Escherichia coli DC 2; read-out: MIC
[14] = test system: Pseudomonas aeruginosa 1771; assay: as above; assay type: cell-based; conditions: Table 1 strain 14: Pseudomonas aeruginosa 1771
[15] = test system: Streptococcus faecium MD 8b; assay: as above; assay type: cell-based; conditions: Enterococcus faecium, MD8B; Table 1 strain 3: Streptococcus faecium MD 8b; read-out: MIC
[16] = test system: Klebsiella aerogenes 1082 E; assay: as above; assay type: cell-based; conditions: Table 1 strain 17: Klebsiella aerogenes 1082 E
P. mirabilis = assay: Preventive effect against the systemic infection; assay type: in vivo; conditions: Proteus mirabilis, 168 h, NMRI mice, survival on day 7, read-out: ED₅₀
Description: 10 fold of the pathogen which leads to 100% lethality were injected intraperitoneally to male and female NMRI mice weighing 18 to 20g. Immediately and after 4 hours, the dose of test compounds which was determined by two-fold serial dilution method was administered orally or subcutaneously; and on day 7, the effectiveness was evaluated in terms of ED₅₀ calculated from the number of survived mice by the probit analysis.

[17] = test system: Staphylococcus aureus 208 E; assay: In vitro anti-bacterial activity test (MIC, two-fold dilution method), Table 2 strains; assay type: cell-based; conditions: Table 2 strain 3: Staphylococcus aureus 208 E; read-out: MIC
[18] = test system: Staphylococcus aureus 707 E; assay: as above; assay type: cell-based; conditions: Table 2 strain 15: Staphylococcus aureus 707 E; read-out: MIC
[19] = test system: Staphylococcus aureus 708 E; assay: as above; assay type: cell-based; conditions: Table 2 strain 16: Staphylococcus aureus 708 E
[20] = test system: Staphylococcus aureus 256 E; assay: as above; assay type: cell-based; conditions: Table 2 strain 4: Staphylococcus aureus 256 E
[21] = test system: Staphylococcus aureus 690 E; assay: as above; assay type: cell-based; conditions: Table 2 strain 5: Staphylococcus aureus 690 E; read-out: MIC
[22] = test system: Staphylococcus aureus 705 E; assay: as above; assay type: cell-based; conditions: Table 2 strain 13: Staphylococcus aureus 705 E; read-out: MIC
[23] = test system: Staphylococcus aureus 88 E; assay: as above; assay type: cell-based; conditions: Table 2 strain 1: Staphylococcus aureus 88 E
[24] = test system: Staphylococcus aureus 701 E; assay: as above; assay type: cell-based; conditions: Table 2 strain 11: Staphylococcus aureus 701 E; read-out: MIC
[25] = test system: Staphylococcus aureus 697 E; assay: as above; assay type: cell-based; conditions: Table 2 strain 10: Staphylococcus aureus 697 E
[26] = test system: Staphylococcus aureus 692 E; assay: as above; assay type: cell-based; conditions: Table 2 strain 6: Staphylococcus aureus 692 E
[27] = test system: Staphylococcus aureus 695 E; assay: as above; assay type: cell-based; conditions: Table 2 strain 9: Staphylococcus aureus 695 E; read-out: MIC
[28] = test system: Staphylococcus aureus 693 E; assay: as above; assay type: cell-based; conditions: Table 2 strain 7: Staphylococcus aureus 693 E; read-out: MIC
[29] = test system: Staphylococcus aureus 703 E; assay: as above; assay type: cell-based; conditions: Table 2 strain 12: Staphylococcus aureus 703 E; read-out: MIC
[30] = test system: Staphylococcus aureus 706 E; assay: as above; assay type: cell-based; conditions: Table 2 strain 14: Staphylococcus aureus 706 E; read-out: MIC
[31] = test system: Staphylococcus aureus 694 E; assay: as above; assay type: cell-based; conditions: Table 2 strain 8: Staphylococcus aureus 694 E; read-out: MIC
[32] = test system: Staphylococcus aureus 711 E; assay: as above; assay type: cell-based; conditions: Table 2 strain 17: Staphylococcus aureus 711 E; read-out: MIC
[33] = test system: Staphylococcus aureus 121 E; assay: as above; assay type: cell-based; conditions: Table 2 strain 2: Staphylococcus aureus 121 E; read-out: MIC
[34] = test system: Staphylococcus aureus 714 E; assay: as above; assay type: cell-based; conditions: Table 2 strain 18: Staphylococcus aureus 714 E; read-out: MIC
[35] = test system: Staphylococcus aureus 725 E; assay: as above; assay type: cell-based; conditions: Table 2 strain 19: Staphylococcus aureus 725 E; read-out: MIC
Acute Toxicity Test = conditions: mouse, in vivo, female ICR mice, day 14, read-out: Acute Toxicity(LD₅₀)
Description: Test compounds were administered to female ICR mice weighing 20 to 25g and on day 14, LD₅₀ was calculated from the number of survived mice by the probit analysis.

Structure (SMILES) | MIC [1] | MIC (Escherichia coli DC 0 [2]) | MIC [3] | MIC [4] | MIC [5] | MIC [6] | MIC [7] | MIC [8] | MIC (Escherichia coli DC 0 [9]) | MIC [10] | MIC [11] | MIC [12] | MIC (Escherichia coli OTEM) | MIC (Escherichia coli 1507 E) | MIC (Salmonella typhimurium) | MIC [13] | MIC (Escherichia coli DC 2) | MIC [14] | MIC [15] | MIC [16] | other results
NC1CC12CCN(c1c(F)cc3c(=O)c(C(=O)O)cn(C4CC4)c3c1Cl)C2 (centres unmarked) [Example 3, 7-(1-amino-5-azaspiro[2,4]heptane-5-yl)-8-chloro-1-cyclopropyl-6-fluoro-1,4-dihydro-4-oxoquinoline-3-carboxylic acid] | 0.004 µg/mL (≈ 0.0102 µM) | 0.195 µg/mL (≈ 0.498 µM) | 0.195 µg/mL (≈ 0.498 µM) | 0.098 µg/mL (≈ 0.25 µM) | 0.007 µg/mL (≈ 0.0179 µM) | 0.781 µg/mL (≈ 1.99 µM) | 0.025 µg/mL (≈ 0.0638 µM) | 0.004 µg/mL (≈ 0.0102 µM) | < 0.002 µg/mL | 0.781 µg/mL (≈ 1.99 µM) | 0.025 µg/mL (≈ 0.0638 µM) | 0.004 µg/mL (≈ 0.0102 µM) | 0.007 µg/mL (≈ 0.0179 µM) | 0.025 µg/mL (≈ 0.0638 µM) | 0.004 µg/mL (≈ 0.0102 µM) | < 0.002 µg/mL | 0.025 µg/mL (≈ 0.0638 µM) | 0.781 µg/mL (≈ 1.99 µM) | 0.391 µg/mL (≈ 0.998 µM) | < 0.002 µg/mL | ED50 (P. mirabilis; Oral Administration): 2.58 mg/kg; ED50 (P. mirabilis; sc, Subcutaneous Injection): 0.63 mg/kg
Nc1c(F)c(N2CCC3(CC3N)C2)c(F)c2c1c(=O)c(C(=O)O)cn2C1CC1 (centres unmarked) [Example 7, 7-(1-amino-5-azaspiro[2,4]heptane-5-yl)-1-cyclopropyl-5-amino-6,8-difluoro-1,4-dihydro-4-oxo-quinoline-3-carboxylic acid] | 0.098 µg/mL (≈ 0.251 µM) | 0.391 µg/mL (≈ 1 µM) | 0.391 µg/mL (≈ 1 µM) | 0.391 µg/mL (≈ 1 µM) | 0.025 µg/mL (≈ 0.064 µM) | 1.56 µg/mL (≈ 4 µM) | 0.025 µg/mL (≈ 0.064 µM) | 0.025 µg/mL (≈ 0.064 µM) | 0.007 µg/mL (≈ 0.0179 µM) | 1.56 µg/mL (≈ 4 µM) | 0.195 µg/mL (≈ 0.5 µM) | 0.025 µg/mL (≈ 0.064 µM) | 0.025 µg/mL (≈ 0.064 µM) | 0.098 µg/mL (≈ 0.251 µM) | 0.025 µg/mL (≈ 0.064 µM) | 0.013 µg/mL (≈ 0.0333 µM) | 0.098 µg/mL (≈ 0.251 µM) | 0.781 µg/mL (≈ 2 µM) | 0.391 µg/mL (≈ 1 µM) | 0.007 µg/mL (≈ 0.0179 µM) | MIC [17]: 0.025 µg/mL (≈ 0.064 µM); MIC [18]: 0.025 µg/mL (≈ 0.064 µM); MIC [19]: 0.007 µg/mL (≈ 0.0179 µM); MIC [20]: 0.025 µg/mL (≈ 0.064 µM); MIC [21]: 0.013 µg/mL (≈ 0.0333 µM); MIC [22]: 0.025 µg/mL (≈ 0.064 µM); MIC [23]: 0.098 µg/mL (≈ 0.251 µM); MIC [24]: 0.025 µg/mL (≈ 0.064 µM); MIC [25]: 0.013 µg/mL (≈ 0.0333 µM); MIC [26]: 0.013 µg/mL (≈ 0.0333 µM); MIC [27]: 0.013 µg/mL (≈ 0.0333 µM); MIC [28]: 0.013 µg/mL (≈ 0.0333 µM); MIC [29]: 0.025 µg/mL (≈ 0.064 µM); MIC [30]: 0.025 µg/mL (≈ 0.064 µM); MIC [31]: 0.025 µg/mL (≈ 0.064 µM); MIC [32]: 0.007 µg/mL (≈ 0.0179 µM); MIC [33]: 0.025 µg/mL (≈ 0.064 µM); MIC [34]: 0.013 µg/mL (≈ 0.0333 µM); MIC [35]: 0.025 µg/mL (≈ 0.064 µM)
C[C@H]1COc2c(N3CCC4(CC4N)C3)c(F)cc3c(=O)c(C(=O)O)cn1c23 (some centres unmarked) [Example 13] | 0.098 µg/mL (≈ 0.262 µM) | 0.391 µg/mL (≈ 1.05 µM) | 0.391 µg/mL (≈ 1.05 µM) | 0.391 µg/mL (≈ 1.05 µM) | 0.098 µg/mL (≈ 0.262 µM) | 1.56 µg/mL (≈ 4.19 µM) | 0.098 µg/mL (≈ 0.262 µM) | 0.049 µg/mL (≈ 0.131 µM) | 0.025 µg/mL (≈ 0.067 µM) | 1.56 µg/mL (≈ 4.19 µM) | 0.195 µg/mL (≈ 0.522 µM) | 0.049 µg/mL (≈ 0.131 µM) | 0.049 µg/mL (≈ 0.131 µM) | 0.098 µg/mL (≈ 0.262 µM) | 0.049 µg/mL (≈ 0.131 µM) | 0.049 µg/mL (≈ 0.131 µM) | 0.098 µg/mL (≈ 0.262 µM) | 1.56 µg/mL (≈ 4.19 µM) | 0.195 µg/mL (≈ 0.522 µM) | 0.004 µg/mL (≈ 0.0107 µM) | LD50 at 336 h (Acute Toxicity Test; ip, Intraperitoneal Injection): 620 mg/kg; LD50 at 336 h (Acute Toxicity Test; Oral Administration): 4000 mg/kg
